Experimental data: patent US9873680B2 (Gilead Sciences, Inc., priority 2014, dated 2018)
Where two headings read alike, the source gives them in different places.

What was measured:
[1] = system: HIV-IIIb; experiment: Test A: Antiviral Assay in MT4 Cells; format: cell-based, HIV-1; details: read-out: % inhibition at 0.2 μM (percent inhibition of virus-induced cell killing)
Procedure, shortened: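 MT-4 cells were preinfected with HIV-IIIb […]. Cell viability, as protection from viral cytopathic effect, was read by CellTiter-Glo chemiluminescence.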

[2] = Test B: Cytotoxicity Assay; format: cell-based; details: human, uninfected MT-4 cells, CellTiter-Glo
Method: Test B: Cytotoxicity Assay Compound cytotoxicity and the corresponding CC50 values was determined using the same protocol as described in the antiviral assay (Test A) except that uninfected cells were used.

[3] = Human immunodeficiency virus 1, MT4, 120 h, 0.2 μM drug concentration, MT-4 cells infected with HIV-IIIb, 5 days, values normalized to 100%, average over time
[4] = Human immunodeficiency virus 1, IIIB, MT4, 120 h

Cn1nc(NS(C)(=O)=O)c2c(Cl)ccc(-c3ccc(C#CC4(O)CCCNC4)nc3[C@H](Cc3cc(F)cc(F)c3)NC(=O)Cn3nc(C(F)(F)F)c4c3C(F)(F)[C@@H]3C[C@H]43)c21 (stereo partly drawn) [Compound 75, N-((1S)-1-(3-(4-chloro-1-methyl-3-(methylsulfonamido)-1H-indazol-7-yl)-6-((3-hydroxypiperidin-3-yl)ethynyl)pyridin-2-yl)-2-(3,5-difluorophenyl)ethyl)-2-((3bS,4aR)-5,5-difluoro-3-(trifluoromethyl)-3b,4,4a,5-tetrahydro-1H-cyclopropa[3,4]cyclopenta[1,2-c]pyrazol-1-yl)acetamide]
inhibition at 0.2 µM [1, 3]: 81% | CC50 at 5 days [2]: 5.59 µM

Cn1nc(NS(C)(=O)=O)c2c(Cl)ccc(-c3ccc(C#CC4(C)CNCCO4)nc3[C@H](Cc3cc(F)cc(F)c3)NC(=O)Cn3nc(C(F)(F)F)c4c3C(F)(F)[C@@H]3C[C@H]43)c21 (stereo partly drawn) [Compound 76, N-((1S)-1-(3-(4-chloro-1-methyl-3-(methylsulfonamido)-1H-indazol-7-yl)-6-((2-methylmorpholin-2-yl)ethynyl)pyridin-2-yl)-2-(3,5-difluorophenyl)ethyl)-2-((3bS,4aR)-5,5-difluoro-3-(trifluoromethyl)-3b,4,4a,5-tetrahydro-1H-cyclopropa[3,4]cyclopenta[1,2-c]pyrazol-1-yl)acetamide]
inhibition at 0.2 µM [1, 3]: 93% | CC50 at 5 days [2]: 6.67 µM

Cn1nc(NS(C)(=O)=O)c2c(Cl)ccc(-c3ccc(C#CC4(C)CNCCO4)nc3[C@H](Cc3cc(F)cc(F)c3)NC(=O)Cn3nc(C(F)F)c4c3C(F)(F)[C@@H]3C[C@H]43)c21 (stereo partly drawn) [Compound 77, N-((1S)-1-(3-(4-chloro-1-methyl-3-(methylsulfonamido)-1H-indazol-7-yl)-6-((2-methylmorpholin-2-yl)ethynyl)pyridin-2-yl)-2-(3,5-difluorophenyl)ethyl)-2-((3bS,4aR)-3-(difluoromethyl)-5,5-difluoro-3b,4,4a,5-tetrahydro-1H-cyclopropa[3,4]cyclopenta[1,2-c]pyrazol-1-yl)acetamide]
inhibition at 0.2 µM [1, 3]: 90% | CC50 at 5 days [2]: 7.7 µM

Cn1cnc(C#Cc2ccc(-c3ccc(Cl)c4c(NS(C)(=O)=O)nn(C)c34)c([C@H](Cc3cc(F)cc(F)c3)NC(=O)Cn3nc(C(F)F)c4c3C(F)(F)[C@@H]3C[C@H]43)n2)c1 [Compound 78, N—((S)-1-(3-(4-chloro-1-methyl-3-(methylsulfonamido)-1H-indazol-7-yl)-6-((1-methyl-1H-imidazol-4-yl)ethynyl)pyridin-2-yl)-2-(3,5-difluorophenyl)ethyl)-2-((3bS,4aR)-3-(difluoromethyl)-5,5-difluoro-3b,4,4a,5-tetrahydro-1H-cyclopropa[3,4]cyclopenta[1,2-c]pyrazol-1-yl)acetamide]
inhibition at 0.2 µM [1, 3]: 87% | CC50 at 5 days [2]: > 36.6 µM

Cn1nc(NS(C)(=O)=O)c2c(Cl)ccc(-c3ccc(C#CC(C)(C)n4ccnc4)nc3[C@H](Cc3cc(F)cc(F)c3)NC(=O)Cn3nc(C(F)(F)F)c4c3C(F)(F)[C@@H]3C[C@H]43)c21 [Compound 79B, N—((S)-1-(6-(3-(1H-imidazol-1-yl)-3-methylbut-1-yn-1-yl)-3-(4-chloro-1-methyl-3-(methylsulfonamido)-1H-indazol-7-yl)pyridin-2-yl)-2-(3,5-difluorophenyl)ethyl)-2-((3bS,4aR)-5,5-difluoro-3-(trifluoromethyl)-3b,4,4a,5-tetrahydro-1H-cyclopropa[3,4]cyclopenta[1,2-c]pyrazol-1-yl)acetamide]
inhibition at 0.2 µM [1, 3]: 93% | CC50 at 5 days [2]: 11.5 µM

Cn1nc(NS(C)(=O)=O)c2c(Cl)ccc(-c3ccc(C#CC(C)(C)n4ccnc4)nc3[C@H](Cc3cc(F)cc(F)c3)NC(=O)Cn3nc(C(F)F)c4c3C(F)(F)[C@@H]3C[C@H]43)c21 [Compound 80, N—((S)-1-(6-(3-(1H-imidazol-1-yl)-3-methylbut-1-yn-1-yl)-3-(4-chloro-1-methyl-3-(methylsulfonamido)-1H-indazol-7-yl)pyridin-2-yl)-2-(3,5-difluorophenyl)ethyl)-2-((3bS,4aR)-3-(difluoromethyl)-5,5-difluoro-3b,4,4a,5-tetrahydro-1H-cyclopropa[3,4]cyclopenta[1,2-c]pyrazol-1-yl)acetamide]
inhibition at 0.2 µM [1, 3]: 89% | CC50 at 5 days [2]: 20.9 µM

Cn1nc(NS(C)(=O)=O)c2c(Cl)ccc(-c3ccc(C#CC4(C)OCCn5ccnc54)nc3[C@H](Cc3cc(F)cc(F)c3)NC(=O)Cn3nc(C(F)(F)F)c4c3C(F)(F)[C@@H]3C[C@H]43)c21 (stereo partly shown) [Compound 81E]
inhibition at 0.2 µM [1, 4]: 87% | CC50 at 5 days [2]: > 57 µM

Cn1nc(NS(C)(=O)=O)c2c(Cl)ccc(-c3ccc(C#CC4(C)OCCn5ccnc54)nc3[C@H](Cc3cc(F)cc(F)c3)NC(=O)Cn3nc(C(F)F)c4c3C(F)(F)[C@@H]3C[C@H]43)c21 (stereo partly drawn) [Compound 82, N-((1S)-1-(3-(4-chloro-1-methyl-3-(methylsulfonamido)-1H-indazol-7-yl)-6-((8-methyl-6,8-dihydro-5H-imidazo[2,1-c][1,4]oxazin-8-yl)ethynyl)pyridin-2-yl)-2-(3,5-difluorophenyl)ethyl)-2-((3bS,4aR)-3-(difluoromethyl)-5,5-difluoro-3b,4,4a,5-tetrahydro-1H-cyclopropa[3,4]cyclopenta[1,2-c]pyrazol-1-yl)acetamide]
inhibition at 0.2 µM [1, 3]: 90% | CC50 at 5 days [2]: 29.6 µM

Cn1nc(NS(C)(=O)=O)c2c(Cl)ccc(-c3ccc(C#C[C@]4(C)CNCCO4)nc3[C@H](Cc3cc(F)cc(F)c3)NC(=O)Cn3nc(C(F)(F)F)c4c3C(F)(F)[C@@H]3C[C@H]43)c21 [Compound 83G, N—((S)-1-(3-(4-chloro-1-methyl-3-(methylsulfonamido)-1H-indazol-7-yl)-6-(((R)-2-methylmorpholin-2-yl)ethynyl)pyridin-2-yl)-2-(3,5-difluorophenyl)ethyl)-2-((3bS,4aR)-5,5-difluoro-3-(trifluoromethyl)-3b,4,4a,5-tetrahydro-1H-cyclopropa[3,4]cyclopenta[1,2-c]pyrazol-1-yl)acetamide]
inhibition at 0.2 µM [1, 3]: 90% | CC50 at 5 days [2]: 6.57 µM

Cn1nc(NS(C)(=O)=O)c2c(Cl)ccc(-c3ccc(C#C[C@]4(C)CNCCO4)nc3[C@H](Cc3cc(F)cc(F)c3)NC(=O)Cn3nc(C(F)F)c4c3C(F)(F)[C@@H]3C[C@H]43)c21 [Compound 84, N—((S)-1-(3-(4-chloro-1-methyl-3-(methylsulfonamido)-1H-indazol-7-yl)-6-(((R)-2-methylmorpholin-2-yl)ethynyl)pyridin-2-yl)-2-(3,5-difluorophenyl)ethyl)-2-((3bS,4aR)-3-(difluoromethyl)-5,5-difluoro-3b,4,4a,5-tetrahydro-1H-cyclopropa[3,4]cyclopenta[1,2-c]pyrazol-1-yl)acetamide]
inhibition at 0.2 µM [1, 3]: 88% | CC50 at 5 days [2]: 6.9 µM

CCN1CCO[C@](C)(C#Cc2ccc(-c3ccc(Cl)c4c(NS(C)(=O)=O)nn(C)c34)c([C@H](Cc3cc(F)cc(F)c3)NC(=O)Cn3nc(C(F)F)c4c3C(F)(F)[C@@H]3C[C@H]43)n2)C1 [Compound 85, N—((S)-1-(3-(4-chloro-1-methyl-3-(methylsulfonamido)-1H-indazol-7-yl)-6-(((R)-4-ethyl-2-methylmorpholin-2-yl)ethynyl)pyridin-2-yl)-2-(3,5-difluorophenyl)ethyl)-2-((3bS,4aR)-3-(difluoromethyl)-5,5-difluoro-3b,4,4a,5-tetrahydro-1-cyclopropa[3,4]cyclopenta[1,2-c]pyrazol-1-yl)acetamide]
inhibition at 0.2 µM [1, 4]: 100% | CC50 at 5 days [2]: 28.6 µM
